Target: T1, CFTR (F508del/MF-HBE cells) (Homo sapiens, UniProt P13569, DEL508-508)
T1 construct: human bronchial epithelial (HBE) cells derived from CF subjects heterozygous for F508del and a minimal function CFTR mutation (F508del/MF-HBE); endogenous in cells; host or cells: Primary human bronchial epithelial cells from CF subjects (F508del/MF genotype), differentiated at an air-liquid interface
Assay: Ussing chamber assay of CFTR-mediated short-circuit currents, Assay A (0.1 μM to 25 μM, 6 concentrations)
Type: cell-based
Conditions: with 33 nM potentiator and 18 μM Tezacaftor, 20% human serum; for Emax: 18-24 hours, read-out: A Max activity (%)
Protocol: Ussing chamber experiments were performed using human bronchial epithelial (HBE) cells derived from CF subjects heterozygous for F508del and a minimal function CFTR mutation (F508del/MF-HBE) and cultured as previously described (Neuberger T, Burton B, Clark H, Van Goor F Methods Mol Biol 2011:741:39-54). After four days the apical media was removed, and the cells were grown at an air liquid interface for >14 days prior to use.
To isolate the CFTR-mediated short-circuit (ISC) current, F508del/MF-HBE grown on Costar® Snapwell™ cell culture inserts were mounted in an Ussing chamber and the transepithelial ISC was measured under voltage-clamp recording conditions (Vhold=0 mV) at 37° C. The basolateral solution contained (in mM) 145 NaCl, 0.83 K2HPO4, 3.3 KH2PO4, 1.2 MgCl2, 1.2 CaCl2, 10 Glucose, 10 HEPES (pH adjusted to 7.4 with NaOH) and the apical solution contained (in mM) 145 NaGluconate, 1.2 MgCl2, 1.2 CaCl2, 10 glucose, 10 HEPES (pH adjusted to 7.4 with NaOH) and 30 μM amiloride to block the epithelial sodium channel. Forskolin (20 μM) was added to the apical surface to activate CFTR, followed by apical addition of a CFTR inhibitor cocktail consisting of BPO, GlyH-101, and CFTR inhibitor 172 (each at 20 μM final assay concentration) to specifically isolate CFTR currents. The CFTR-mediated ISC (μA/cm^2) for each condition was determined from the peak forskolin response to the steady-state current following inhibition.
The activity of the CFTR corrector compounds on the CFTR-mediated ISC was determined in Ussing chamber studies as described above. The F508del/MF-HBE cell cultures were either incubated with the corrector compounds at a range of concentrations in combination with 33 nM (6R,12R)-17-amino-12-methyl-6,15-bis(trifluoromethyl)-13,19-dioxa-3,4,18-triazatricyclo[12.3.1.12,5]nonadeca-1(18),2,4,14,16-pentaen-6-ol and 18 μM Tezacaftor or were incubated with the corrector compounds at a single fixed concentration of 1 μM in combination with 44 nM (6R,12R)-17-amino-12-methyl-6,15-bis(trifluoromethyl)-13,19-dioxa-3,4,18-triazatricyclo[12.3.1.12,5]nonadeca-1(18),2,4,14,16-pentaen-6-ol and 18 μM Tezacaftor for 18-24 hours at 37° C. and in the presence of 20% human serum. The concentration of corrector compounds with 44 nM or 33 nM (6R,12R)-17-amino-12-methyl-6,15-bis(trifluoromethyl)-13,19-dioxa-3,4,18-triazatricyclo[12.3.1.12,5]nonadeca-1(18),2,4,14,16-pentaen-6-ol and 18 μM Tezacaftor during the 18-24 hours incubations was kept constant throughout the Ussing chamber measurement of the CFTR-mediated ISC to ensure compounds were present throughout the entire experiment. The efficacy and potency of the putative F508del correctors was compared to that of the known Vertex corrector, (14S)-8-[3-(2-{Dispiro[2.0.2.1]heptan-7-yl}ethoxy)-1H-pyrazol-1-yl]-12,12-dimethyl-2λ^6-thia-3,9,11,18,23-pentaazatetracyclo[17.3.1.111,14.05,10]tetracosa-1(22),5,7,9,19(23),20-hexaene-2,2,4-trione, in combination with 18 μM Tezacaftor and 1 μM Ivacaftor.
• Assay A: 0.1 μM to 25 μM, 6 concentrations • Assay B: 0.00001 μM to 25 μM, 12 concentrations • Assay C: 0.026 μM to 25 μM, 6 concentrations • Assay D: Activity at single concentration of 1 μM

T1 sequence (P13569 with tags, fused parts or gaps DEL508-508): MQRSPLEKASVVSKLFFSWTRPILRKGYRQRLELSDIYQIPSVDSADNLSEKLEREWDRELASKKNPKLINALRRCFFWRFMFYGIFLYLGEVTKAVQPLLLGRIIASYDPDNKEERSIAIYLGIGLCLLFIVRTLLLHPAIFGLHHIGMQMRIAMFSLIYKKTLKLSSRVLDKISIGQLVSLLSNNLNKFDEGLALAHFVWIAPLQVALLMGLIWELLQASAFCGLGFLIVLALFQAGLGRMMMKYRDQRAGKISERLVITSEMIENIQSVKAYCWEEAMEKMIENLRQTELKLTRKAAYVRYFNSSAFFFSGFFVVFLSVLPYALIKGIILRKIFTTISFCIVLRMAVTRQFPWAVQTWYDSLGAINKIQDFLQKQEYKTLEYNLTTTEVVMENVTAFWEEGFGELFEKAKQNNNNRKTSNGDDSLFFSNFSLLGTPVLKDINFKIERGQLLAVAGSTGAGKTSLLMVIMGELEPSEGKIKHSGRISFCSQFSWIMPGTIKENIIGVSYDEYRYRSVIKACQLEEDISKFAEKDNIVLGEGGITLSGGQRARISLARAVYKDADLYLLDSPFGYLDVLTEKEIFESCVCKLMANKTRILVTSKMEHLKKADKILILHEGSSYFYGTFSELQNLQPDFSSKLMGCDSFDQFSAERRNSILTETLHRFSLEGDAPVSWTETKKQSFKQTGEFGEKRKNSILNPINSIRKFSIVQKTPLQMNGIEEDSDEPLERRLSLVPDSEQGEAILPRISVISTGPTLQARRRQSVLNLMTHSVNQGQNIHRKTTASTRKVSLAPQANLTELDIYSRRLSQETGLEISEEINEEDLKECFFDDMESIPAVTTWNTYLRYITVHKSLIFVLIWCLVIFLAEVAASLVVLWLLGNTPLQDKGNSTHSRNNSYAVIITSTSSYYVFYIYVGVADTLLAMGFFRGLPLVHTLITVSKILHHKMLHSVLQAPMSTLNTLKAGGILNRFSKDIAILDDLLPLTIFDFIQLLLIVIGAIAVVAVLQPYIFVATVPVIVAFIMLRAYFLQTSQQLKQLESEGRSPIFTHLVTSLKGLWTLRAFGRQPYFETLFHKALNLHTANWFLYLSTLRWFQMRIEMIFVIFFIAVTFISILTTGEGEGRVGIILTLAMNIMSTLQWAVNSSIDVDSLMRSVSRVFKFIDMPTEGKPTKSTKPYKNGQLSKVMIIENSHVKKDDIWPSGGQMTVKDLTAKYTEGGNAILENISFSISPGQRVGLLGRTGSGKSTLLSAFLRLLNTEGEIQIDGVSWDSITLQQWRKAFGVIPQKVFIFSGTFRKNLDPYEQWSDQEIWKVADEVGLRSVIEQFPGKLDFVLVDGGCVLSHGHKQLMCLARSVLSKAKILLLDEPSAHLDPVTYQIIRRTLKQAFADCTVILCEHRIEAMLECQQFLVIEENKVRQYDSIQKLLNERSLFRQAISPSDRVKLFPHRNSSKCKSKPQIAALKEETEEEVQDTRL

SMILES	Emax [%]	EC50 [nM]
Cc1cccc(C)c1-c1cc2nc(n1)NS(=O)(=O)c1cccc(c1)C(=O)N(Cc1nc3c(cc1F)cc(C(C)C)n3C)[C@@H](COC1CCC1)CO2 (stereo in doubt) [Compound I-84]	> 60	< 1000
Cc1cccc(C)c1-c1cc2nc(n1)NS(=O)(=O)c1cccc(c1)C(=O)N(Cc1cnc3oc(C(C)C)c(C)c3n1)[C@H](CCC(C)(C)C)CO2 [Compound I-11]	> 60	< 1000
Cc1cccc(C)c1-c1cc2nc(n1)NS(=O)(=O)c1cccc(c1)C(=O)N(Cc1cnc3oc(C4CC4)cc3n1)[C@H](CC1C3(CC3)C13CC3)CO2 [Compound I-102]	> 60	< 1000
Cc1cccc(C)c1-c1cc2nc(n1)NS(=O)(=O)c1cccc(c1)C(=O)N(Cc1cnc3oc(C4CC4)cc3n1)[C@H](C[C@H]1CCCCO1)CO2 (stereo in doubt) [Compound I-44]	> 60	< 1000
Cc1cccc(C)c1-c1cc2nc(n1)NS(=O)(=O)c1cccc(c1)C(=O)N(Cc1cnc3oc(C(C)C)cc3n1)[C@H](CCC(C)(C)F)CO2 (single isomer, unassigned) [Compound I-36]	> 60	< 1000
Cc1cccc(C)c1-c1cc2nc(n1)NS(=O)(=O)c1cccc(c1)C(=O)N(Cc1cnc3oc(C(C)C)c(C)c3n1)[C@H](CC(C)(C)C)CO2 [Compound I-4]	> 60	< 1000
Cc1cccc(C)c1-c1cc2nc(n1)NS(=O)(=O)c1cccc(c1)C(=O)N(Cc1cnc3oc(C4CC4)cc3n1)[C@H](CCC(C)(C)F)CO2 [Compound I-107]	> 60	< 1000
Cc1cccc(C)c1-c1cc2nc(n1)NS(=O)(=O)c1cccc(c1)CN(C(=O)c1cncc(N(C)C3CCC3)n1)[C@H](CC(C)(C)C)CO2 [II-36]	30 to 60	1000 to 3000
Cc1cccc(C)c1-c1cc2nc(n1)NS(=O)(=O)c1cccc(c1)C(=O)N(Cc1cnc3cc(C(C)C)n(C)c3n1)[C@H](CC1C3(CC3)C13CC3)CO2 [Compound I-100]	> 60	< 1000
Cc1cccc(C)c1-c1cc2nc(n1)NS(=O)(=O)c1cccc(c1)C(=O)N(Cc1cnc3oc(C(C)C)c(C#N)c3n1)[C@H](CC1(C)CC1)CO2 [Compound I-53, 2-[[(11R)-6-(2,6-dimethylphenyl)-11-[(1-methylcyclopropyl)methyl]-2,2,13-trioxo-9-oxa-2λ^6-thia-3,5,12,19-tetrazatricyclo[12.3.1.14,8]nonadeca-1(18),4(19),5,7,14,16-hexaen-12-yl]methyl]-6-isopropyl-furo[2,3-b]pyrazine-7-carbonitrile]	> 60	< 1000
Cc1cccc(C)c1-c1cc2nc(n1)NS(=O)(=O)c1cccc(c1)C(=O)N(Cc1nc3c(cc1F)cc(C(C)C)n3C)[C@H](CC1(C)CC1)CO2 [Compound I-80]	> 60	< 1000
Cc1cccc(C)c1-c1cc2nc(n1)NS(=O)(=O)c1cccc(c1)C(=O)N(Cc1cnc3cc(C(C)C)n(C)c3n1)[C@H](CCC1(C)CCC1)CO2 [Compound I-41]	> 60	< 1000
Cc1cccc(C)c1-c1cc2nc(n1)NS(=O)(=O)c1cccc(c1)C(=O)N(Cc1cnc3oc(C(C)C)cc3n1)[C@H](CC1CCOCC1)CO2 [Compound I-30, (11R)-6-(2,6-dimethylphenyl)-12-[(6-isopropylfuro[2,3-b]pyrazin-2-yl)methyl]-2,2-dioxo-11-(tetrahydropyran-4-ylmethyl)-9-oxa-2λ^6-thia-3,5,12,19-tetrazatricyclo[12.3.1.14,8]nonadeca-1(18),4(19),5,7,14,16-hexaen-13-one]	30 to 60	< 1000
Cc1cccc(C)c1-c1cc2nc(n1)NS(=O)(=O)c1cccc(c1)C(=O)N(Cc1cnc3oc(C4CC4)cc3n1)[C@H](CC1CCCCC1)CO2 [Compound I-42]	> 60	< 1000
Cc1cccc(C)c1-c1cc2nc(n1)NS(=O)(=O)c1cccc(c1)C(=O)N(Cc1cnc3cc(C(C)C)n(C)c3n1)[C@H](CCC(C)(C)F)CO2 [Compound I-106]	> 60	< 1000

— US20250340574A1, “MODULATORS OF CYSTIC FIBROSIS TRANSMEMBRANE CONDUCTANCE REGULATOR” (Vertex Pharmaceuticals Incorporated, priority 2022, published 2025)
